Values after ≈ are worked out from the molar mass of the structure shown.

For the data set the following is noted: buffer; pH 7.4; 200.0 µM.
For the molecule `Cc1cc([N+](=O)[O-])c2ccccc2[n+]1[O-]`, the solubility (kinetic) is greater than 30.6 µg/mL.

In turn, `Cc1ncc([N+](=O)[O-])n1Cc1ccc(Cl)cc1` yielded a kinetic solubility of 34.7 µg/mL (≈ 138 µM).

In turn, `C/C(N)=C(/C#N)C(=O)COC(=O)c1cccc(O)c1` yielded a kinetic solubility greater than 39 µg/mL.

The molecule `O=C(CSc1ccccc1)NCc1ccccc1` registered a kinetic solubility of 22.6 µg/mL (≈ 87.8 µM).

The molecule `Cc1ccc(OCCSc2nc3ccccc3n2CC(=O)O)cc1` had a solubility (kinetic) greater than 51.4 µg/mL.

Molecule `Cc1ccc(C)c(NCC(O)c2ccccc2)c1` (stereo not drawn) registered a solubility (kinetic) greater than 36.2 µg/mL.

The molecule `CC(C)(C)C(=O)OCc1nc(-c2ccc(Cl)cc2)cs1` had a solubility (kinetic) of less than 0.7 µg/mL.

As for `COc1ccc(NC(=O)c2cc(-c3ccco3)nc3ccccc23)cc1`, the solubility (kinetic) was less than 0.4 µg/mL.

`CCn1c(SCC(=O)N2CCCC2)nc2ccccc21`: the solubility (kinetic) is greater than 43.4 µg/mL.

In turn, `Cc1ccsc1C(=O)NCCc1ccc(S(N)(=O)=O)cc1` came in with a kinetic solubility of 32.8 µg/mL (≈ 101 µM).

Regarding `C=CCOc1cccc(CNCc2ccncc2)c1`, the kinetic solubility is 28 µg/mL (≈ 110 µM).

In turn, `O=S(=O)(NCCN1CCCC1)c1ccc(Br)cc1` showed a solubility (kinetic) of 46.9 µg/mL (≈ 141 µM).

As to `O=C(Nc1nccs1)C1CCN(S(=O)(=O)c2ccccc2)CC1`, the kinetic solubility was 43.7 µg/mL (≈ 124 µM).

`O=C(NC(=S)Nc1cc([N+](=O)[O-])ccc1O)C1CC1` displayed a solubility (kinetic) greater than 42.2 µg/mL.

`Cn1c(OCc2cccnc2)nc2c1c(=O)n(Cc1ccc(F)cc1)c(=O)n2C` displayed a solubility (kinetic) of 7.7 µg/mL (≈ 19.5 µM).

As for `Cl.O=C(Nc1ncc([N+](=O)[O-])s1)c1cccs1`, the solubility (kinetic) is greater than 43.8 µg/mL.

`Cc1cc(C)c(C)c(S(=O)(=O)Nc2ccccc2N2CCOCC2)c1C` displayed a solubility (kinetic) of 1.7 µg/mL (≈ 4.54 µM).

`COC(=O)/C=C1\SC(=Nc2ccc(OC)cc2)NC1=O`: the solubility (kinetic) amounted to 1.9 µg/mL (≈ 6.5 µM).

In turn, `Cc1nc2ccccc2n1Cc1ccc(Cl)cc1` yielded a kinetic solubility of 24.9 µg/mL (≈ 97 µM).

`O=C1C(=O)N(C/C=C/c2ccccc2)c2ccccc21` came in with a kinetic solubility of 2.3 µg/mL (≈ 8.74 µM).

The molecule `Cc1csc(SCC(=O)N(C)C2CCS(=O)(=O)C2)n1` (stereo not drawn) gave a kinetic solubility greater than 48.1 µg/mL.

As to `CCOc1cc(NC(=O)CCl)c(OCC)cc1NC(=O)CCl`, the solubility (kinetic) was 6.8 µg/mL (≈ 19.5 µM).

Turning to `COc1ccccc1NC1=NC(CO)(CO)CS1`, the kinetic solubility was greater than 40.2 µg/mL.

In turn, `COc1ccc(CN(C)CC(=O)Nc2cccc(S(=O)(=O)N3CCCC3)c2)cc1F` yielded a solubility (kinetic) of 44 µg/mL (≈ 101 µM).

Take `COc1ccc(NC(=O)Cc2ccc(Cl)c(Cl)c2)cn1`: the kinetic solubility was found to be 8.9 µg/mL (≈ 28.6 µM).

With `Cc1ccc(S(=O)(=O)N2CCN(c3cccc(C)c3)CC2)cc1`, the solubility (kinetic) was less than 0.4 µg/mL.

In turn, `C[C@@H](C(=O)NC1CCCC1)N1C(=O)N2CCc3c([nH]c4ccccc34)[C@@]2(C)C1=O` came in with a kinetic solubility of 48.7 µg/mL (≈ 123 µM).

`Cc1cc(=O)[nH]c(SCC(=O)NCC2CCCCC2)c1C#N` yielded a solubility (kinetic) greater than 47.9 µg/mL.

In turn, `O=C(COC(=O)CCc1ccccc1)NCc1ccccc1` registered a kinetic solubility greater than 44.6 µg/mL.

`N#C/C(=C\c1ccccc1C(=O)O)c1nc2ccccc2[nH]1` yielded a kinetic solubility greater than 43.4 µg/mL.

`N#Cc1c(C(F)(F)F)cc(-c2cccs2)nc1SCC(=O)O` displayed a kinetic solubility of 46.1 µg/mL (≈ 134 µM).

Regarding `CCN1CCN(c2ccc(NC(=O)COc3ccc(Cl)cc3C)cc2)CC1`, the solubility (kinetic) turned out to be 5.1 µg/mL (≈ 13.1 µM). Compared with the last molecule, the solubility kinetic is about 9-fold lower.

As to `COc1cccc2[nH]c3c(N4CCC5(CC4)OCCO5)ncnc3c12`, the solubility (kinetic) is greater than 51.1 µg/mL.

The molecule `Cc1ccccc1/C=C/c1cc[n+](C)cc1.[I-]` showed a kinetic solubility greater than 50.6 µg/mL.

In turn, `O=C(CC(c1ccccc1)c1ccccc1O)N1CCCCC1` (stereo not drawn) had a kinetic solubility greater than 46.4 µg/mL.

Molecule `c1ccc(-c2nccc3ccccc23)cc1` returned a kinetic solubility of 7.3 µg/mL (≈ 35.6 µM).

The molecule `COc1cccc(NC(=O)CCN2C(=O)c3cccc([N+](=O)[O-])c3C2=O)c1` came in with a kinetic solubility greater than 55.4 µg/mL.

Turning to `CCOc1ccc(C(=O)Oc2ccc(NC(C)=O)cc2)cc1`, the solubility (kinetic) is less than 0.6 µg/mL.

For `O=C(O)c1cccc(NC2=Nc3cccc4cccc2c34)c1`, the solubility (kinetic) stood at 36.7 µg/mL (≈ 127 µM).

In the case of `O=C(CN1CCOCC1)Nc1ccc([N+](=O)[O-])cc1Br`, the solubility (kinetic) was found to be 7.3 µg/mL (≈ 21.2 µM).

Turning to `CCc1noc(C)c1C(=O)Nc1ccc(F)c(F)c1`, the kinetic solubility worked out at 37.7 µg/mL (≈ 142 µM).

Consider `Cc1c(C(=O)NC2CCOC2)oc2c(F)cccc12` (stereo not drawn), for which the solubility (kinetic) was greater than 39.5 µg/mL.

As to `Cc1ccc(C(=O)Nc2ccc(Nc3ccccc3)cc2)cc1C`, the kinetic solubility was found to be 2.3 µg/mL (≈ 7.27 µM).

In the case of `COc1ccc(C2(O)C(=O)Nc3ccccc32)cc1` (stereo not drawn), the kinetic solubility was greater than 38.3 µg/mL.

On to `CC(O)CNc1nc2c(c(=O)n(Cc3cccc(Cl)c3)c(=O)n2C)n1C` (stereo not drawn), for which the kinetic solubility was found to be 50.5 µg/mL (≈ 134 µM).

`Cc1ccc(C(=O)NC(C)c2ccc3c(c2)OCO3)s1` (stereo not drawn) registered a kinetic solubility greater than 43.4 µg/mL.

Consider `CCN(C(=O)CSc1nc2ccc(C)cc2[nH]1)C1CCS(=O)(=O)C1` (stereo not drawn), for which the solubility (kinetic) was greater than 55.1 µg/mL.

Take `Cc1ccc(C(=O)OCC(=O)NCc2cccs2)s1`: the kinetic solubility was greater than 44.3 µg/mL.

`Cc1cnc(NS(=O)(=O)c2ccc(Cl)cc2)c(Br)c1` returned a solubility (kinetic) greater than 54.2 µg/mL.

In the case of `Nc1ncc2c(n1)CCN(c1ccc([N+](=O)[O-])cc1)C2`, the solubility (kinetic) was 5.9 µg/mL (≈ 21.7 µM).

For the molecule `Cc1cccc(C)c1OCCCn1ccnc1`, the solubility (kinetic) is 20.1 µg/mL (≈ 87.3 µM).

`Cc1ccc(C(=O)NCCN2CCOCC2)cc1C` displayed a kinetic solubility of 38.1 µg/mL (≈ 145 µM). This solubility kinetic is about 1.9-fold higher than that of the molecule before.

The molecule `Cc1cccc(Cl)c1OCCN1CCCC1.O=C(O)C(=O)O` registered a solubility (kinetic) greater than 49.5 µg/mL.

The values are drawn from PubChem BioAssay AID1996.
